ChEMBL document CHEMBL1128855, “Design and synthesis of an antitumor prodrug released by the reaction with sulfhydryl compounds” (Bioorg Med Chem Lett, 1995)
Converted amounts (≈) assume the structure as drawn.

Key:
[1] = test system: HeLa; experiment: Cytotoxic activity against HeLa S3 cells; format: functional, cell-based; conditions: Homo sapiens
[2] = test system: L1210 (1565); experiment: Cytotoxic activity against adriamycin (ADR) resistant L-1210 cell line; format: functional, cell-based, Mus musculus
[3] = test system: L1210 (1565); experiment: Cytotoxic activity against L-1210 parental cell line; format: functional, cell-based, Mus musculus
[4] = Relative resistance value of Adriamycin resistant L-1210/L-1210 parental cell line; format: functional
[5] = test system: L1210 (1565); experiment: cytotoxic activity against adriamycin (ADR) resistant L-1210 cell line; format: functional, cell-based, Mus musculus

SMILES	IC50 [1]	IC50 [2]	IC50 [3]	Ratio [4]	IC50 [5]
C/C=C/C(=O)OCC1=CCC(C)(C)CC1=O	4.7 µg/mL (≈ 21.1 µM)				
CC(=O)OCC1=CCC(C)(C)CC1=O	23.5 µg/mL (≈ 120 µM)				
COc1cccc2c1C(=O)c1c(O)c3c(c(O)c1C2=O)C[C@@](O)(C(C)=O)C[C@@H]3OC1CC(NC(=O)OCC2=CCC(C)(C)CC2=O)C(O)C(C)O1 (some centres undefined)	0.0096 µg/mL (≈ 0.0136 µM)	0.14 nM ml-1	0.038 nM ml-1	3.7	
CC1(C)CC=C(CO)C(=O)C1	> 100 µg/mL				
CC1(C)CC=C(CI)C(=O)C1	2.3 µg/mL (≈ 8.71 µM)				
COc1cccc2c1C(=O)c1c(O)c3c(c(O)c1C2=O)C[C@@](O)(C(C)=O)C[C@@H]3O[C@H]1C[C@H](N)[C@H](O)[C@H](C)O1.Cl [DAUNORUBICIN HYDROCHLORIDE]		0.147 nM ml-1	0.016 nM ml-1	9.2	
COc1cccc2c1C(=O)c1c(O)c3c(c(O)c1C2=O)C[C@@](O)(C(=O)CO)C[C@@H]3O[C@H]1C[C@H](N)[C@H](O)[C@H](C)O1 [DOXORUBICIN]			0.022 nM ml-1	14.1	0.315 nM ml-1
